Measurements as given in US12059403B2, “Use of SWELL1 inhibitors and modulators to treat type 2 diabetes and obesity” (UNIVERSITY OF IOWA RESEARCH FOUNDATION, priority 2016, dated 2024).
Numbering of substitutions follows the chain as printed.

Tests used:
[1] = target: T1, volume-regulated anion current (VRAC) (Mus musculus, UniProt Q80WG5); assay: Patch-clamp of swell-activated current in mature murine iWAT adipocytes swelled by positive pressure; type: cell-based; details: positive pressure swelling, whole-cell
T1 construct: present in the murine 3T3-F442A and human adipocyte cell lines (NPAD) upon hypotonic swelling; endogenous in cells; host or cells: 3T3-F442A adipocytes
T1 sequence (Q80WG5 1-810): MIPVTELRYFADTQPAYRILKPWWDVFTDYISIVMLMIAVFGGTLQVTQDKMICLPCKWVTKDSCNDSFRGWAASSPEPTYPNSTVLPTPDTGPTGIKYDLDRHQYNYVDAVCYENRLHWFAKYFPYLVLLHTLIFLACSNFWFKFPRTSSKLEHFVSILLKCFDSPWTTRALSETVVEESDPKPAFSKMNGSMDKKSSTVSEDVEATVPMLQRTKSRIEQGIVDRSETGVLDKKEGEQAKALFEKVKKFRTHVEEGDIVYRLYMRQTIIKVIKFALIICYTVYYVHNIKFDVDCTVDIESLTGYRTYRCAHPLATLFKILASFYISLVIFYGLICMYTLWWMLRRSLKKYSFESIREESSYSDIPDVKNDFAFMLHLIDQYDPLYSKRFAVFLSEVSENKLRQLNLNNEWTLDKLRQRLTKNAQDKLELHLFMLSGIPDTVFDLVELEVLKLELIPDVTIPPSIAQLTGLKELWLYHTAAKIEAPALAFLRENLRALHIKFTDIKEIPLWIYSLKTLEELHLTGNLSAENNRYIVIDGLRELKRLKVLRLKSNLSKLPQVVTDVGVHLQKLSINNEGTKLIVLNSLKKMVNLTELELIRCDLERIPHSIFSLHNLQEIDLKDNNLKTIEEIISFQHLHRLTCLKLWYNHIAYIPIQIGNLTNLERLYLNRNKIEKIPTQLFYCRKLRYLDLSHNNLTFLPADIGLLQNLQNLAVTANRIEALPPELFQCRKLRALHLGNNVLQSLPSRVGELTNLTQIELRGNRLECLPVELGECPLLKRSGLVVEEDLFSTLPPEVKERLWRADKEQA
Method: To identify a putative swell-activated ionic current in adipocytes, patch-clamp recordings were performed on mature murine adipocytes freshly isolated from inguinal white adipose tissue (iWAT). Ionic currents were measured in voltage-clamp mode while simultaneously swelling the adipocyte by applying positive pressure (˜3-5 mmHg, whole-cell configuration) via the patch-pipette. After a few minutes, activation of a large swell-activated current was observed. This current is outward rectifying, characterized by larger outward current at positive voltages compared to inward currents at negative voltages during sequential voltage ramps or voltage steps, with the current amplitude proportional to the extent of adipocyte swelling. This current reverses direction at −11.7±2.5 mV, which is near the reversal potential of chloride under these conditions (−11.5 mV, junction potential corrected). […] Finally, this swell-activated adipocyte current is blocked by 4-[(2-Butyl-6,7-dichloro-2-cyclopentyl-2,3-dihydro-1-oxo-1H-inden-5-yl)oxy]butanoic acid (DCPIB), a selective blocker of the volume-regulated anion current (VRAC) or volume-sensitive outwardly rectifying chloride current (VSOR).

[2] = target: T1, volume-regulated anion current (VRAC); assay: Patch-clamp of swell-activated current in 3T3-F442A adipocytes upon hypotonic swelling; type: cell-based; details: murine 3T3-F442A adipocytes
[3] = target: T2, volume-regulated anion current (VRAC) (Homo sapiens, UniProt Q8IWT6); assay: Patch-clamp of swell-activated current in human adipocyte cell line (NPAD) upon hypotonic swelling; type: cell-based
T2 construct: present in the murine 3T3-F442A and human adipocyte cell lines (NPAD) upon hypotonic swelling; endogenous in cells; host or cells: human adipocyte cell line (NPAD)
T2 sequence (Q8IWT6 1-810): T1 sequence (Q80WG5 1-810) with S75P, S76G, V86I, A276I, V591A, V715I, A722T, S792N

β-cell VRAC [4] = target: T3, β-cell VRAC (Mus musculus, UniProt Q80WG5); assay: Perforated-patch clamp of glucose-activated VRAC in MIN6 cells; type: cell-based; details: 35-37° C.
T3 construct: endogenous in cells; host or cells: MIN6 mouse insulinoma cells
T3 sequence (Q80WG5 1-810): T1 sequence (Q80WG5 1-810)
Method: (§1) Having established that SWELL1 is required for this previously enigmatic depolarizing swell-activated Cl^− current in MIN6 cells, and in both mouse and human primary β-cells, whether physiologic glucose-mediated β-cell swelling is sufficient to activate SWELL1-mediated VRAC was investigated. First, β-cell size was measured by light microscopy in WT and SWELL1-deficient primary murine and human β-cells in response to glucose-stimulated swelling (at 35-37° C.). WT murine β-cells swell 6.8±1.6% in cross-sectional area upon perfusion of 16.7 mM glucose (from 1 mM basal glucose) and reach a maximum size at 12 minutes post glucose-stimulation, followed by a reduction in β-cell size, consistent with regulatory volume decrease (RVD). […] WT human β-cells show a similar trend, swelling 8.6±3.5%, followed by RVD. […] Next, the perforated-patch clamp technique was applied to primary β-cells at 35-37° C. in order to measure currents under the same physiological conditions that induce glucose-mediated β-cell swelling. β-cell VRAC activates in response to physiological increases in glucose in MIN6 cells and in both mouse and human β-cells, and is blocked by the selective VRAC inhibitor, DCPIB. […]

β-cell VRAC [5] = target: T3, β-cell VRAC; assay: Perforated-patch clamp of glucose-activated VRAC in primary mouse β-cells; type: cell-based; details: 35-37° C.
Method: as §1

β-cell VRAC [6] = target: T4, β-cell VRAC (Homo sapiens, UniProt Q8IWT6); assay: Perforated-patch clamp of glucose-activated VRAC in primary human β-cells; type: cell-based; details: 35-37° C.
T4 construct: from tissue; host or cells: primary β-cells from human pancreatic islets
T4 sequence (Q8IWT6 1-810): T1 sequence (Q80WG5 1-810) with S75P, S76G, V86I, A276I, V591A, V715I, A722T, S792N
Method: as §1

SWELL1 = SWELL1 protein expression in cultured adipocytes; type: cell-based
[7] = system: mice raised on a high-fat diet; assay: Glucose tolerance in mice raised on a high-fat diet; type: in vivo
WT MIN6 cells = assay: Glucose-stimulated intracellular Ca2+ in WT MIN6 cells; type: cell-based, mouse; details: 10 μM
Method: To determine whether SWELL1-mediated depolarizing Cl^− current is required to depolarize the β-cell membrane potential to the activation threshold of voltage-gated Ca^2+ channels (VGCC) essential for insulin granule fusion, glucose-stimulated intracellular Ca^2+ was measured in WT and SWELL1-deficient MIN6 β-cells, primary mouse and human β-cells.

[8] = system: WT primary murine β-cells; assay: Glucose-stimulated Ca2+ signaling (GCaMP6s imaging) in WT primary murine β-cells; type: cell-based; details: 10 μM
Text: SWELL1-dependent Ca^2+ signaling was then examined in primary mouse and human β-cells. Adenoviruses expressing the genetically encoded Ca^2+-sensor GCaMP6s under control of the rat insulin promoter 1 (RIP1), either alone (Ad-RIP1-GCaMP6s), or in combination with Cre-recombinase (Ad-RIP1-Cre-P2A-GCaMP6s), were generated. This approach provides a robust β-cell restricted fluorescent Ca^2+ sensor while simultaneously allowing for β-cell targeted Cre-mediated SWELL1 deletion in cultured SWELL1^fl/fl islets isolated from SWELL1^fl/fl mice. […] A similar approach was used in human islets, whereby islets were co-transduced with Ad-RIP1-GCaMP6s and either Ad-U6-shSWELL1-mCherry or Ad-U6-shSCR-mCherry. Upon islet dissociation, only double-labelled GCaMP6s+/mCherry+ primary human β-cells were imaged. As with mouse primary β-cells, robust glucose-stimulated Ca^2+ transients in Ad-shSCR treated human primary β-cells were observe, and this is markedly abograted upon Ad-shSWELL1-mediated SWELL1 knock-down. […] In pancreatic β-cells, physiological intracellular Cl^− concentration is maintained at 34-36 mM by NKCC1 transporters to generate a depolarizing Cl^− current upon activation of a Cl^− conductance, since ECl−=˜−35 mV. […]

SMILES | swell-activated adipocyte current [1] | swell-activated current [2] | swell-activated current [3] | β-cell VRAC activated by physiological increases in glucose (β-cell VRAC [4]) | β-cell VRAC activated by physiological increases in glucose (β-cell VRAC [5]) | β-cell VRAC activated by physiological increases in glucose (β-cell VRAC [6]) | SWELL1 protein expression (SWELL1) | glucose tolerance associated with obesity [7] | glucose-stimulated Ca2+ signaling (WT MIN6 cells) | glucose-stimulated Ca2+ signaling [8]
CCCCC1(C2CCCC2)Cc2cc(OCCCC(=O)O)c(Cl)c(Cl)c2C1=O (stereo not shown) [DCPIB, 4-[(2-Butyl-6,7-dichloro-2-cyclopentyl-2,3-dihydro-1-oxo-1H-inden-5-yl)oxy]butanoic acid] | blocked | fully inhibited | fully inhibited | blocked | blocked | blocked | induced a compensatory increase | normalized | – | –
CCCCNc1cc(C(=O)O)cc(S(N)(=O)=O)c1Oc1ccccc1 [bumetanide] | – | – | – | – | – | – | – | – | fully inhibits | fully inhibits
